According to patent US11459309B2, “Crystalline forms of a lysyl oxidase-like 2 inhibitor and methods of making” (PHARMAKEA, INC., priority 2016, dated 2022):
One block for each compound: values may come before it.

How the values were obtained:
[1] = Storage of solid forms at 40° C./75% RH or 25° C./97% RH; assay type: physicochemical; conditions: for 7 days storage @ 40° C./75% RH: appearance: table prints 40° C./5% RH, hydrochloride salt
[2] = as above; assay type: physicochemical; conditions: for 7 days storage @ 40° C./75% RH: resulting form (XRPD): 7 days / one week, hydrochloride salt
Description: All retrieved solids from the crystallisation attempts were stored at 40° C. and 75% RH.

[3] = Organic (qualitative) solubility of Form 1 of Compound 2; assay type: physicochemical
[4] = Gravimetric Vapor Sorption (GVS); assay type: physicochemical; conditions: 0 to 90% RH; methanesulfonate salt
Excerpt: Gravimetric Vapor Sorption (GVS) isotherms were obtained using an SMS DVS Intrinsic moisture sorption analyser, controlled by DVS Intrinsic Control software v1.0.1.2 (or v 1.0.1.3), over a range of 0 to 90% relative humidity (RH).

[5] = Aqueous solubility of Form 1 of Compound 2; assay type: physicochemical
[6] = Stability studies (accelerated, ICH); assay type: physicochemical
Description: The compounds were assayed according to appearance, purity, related Substances, chiral purity, moisture, DSC, and XRPD

Forced degradation study = assay type: physicochemical
[7] = Solubility and metastable limit curves (clear point / cloud point, Crystal16); assay type: physicochemical
Description: The samples were then cooled from 70 back to −8° C. at the same rate. The clear point upon heating (at 100% transmission) and the cloud point upon re-cooling (<100% transmission) were recorded using the Crystal16 instrument and the data is shown in Table 17. XRPD analysis was performed on all solids obtained post cooling.

[8] = Form conversion on heating (thermal analysis / XRPD); assay type: physicochemical; conditions: heated above 150° C.
Description: DSC data were collected on a TA Instruments Q2000 equipped with a 50 position auto-sampler. The calibration for thermal capacity was carried out using sapphire and the calibration for energy and temperature was carried out using certified indium. Typically 0.5-3 mg of each sample, in a pin-holed aluminium pan, was heated at 10° C./min from 25° C. to 300° C. A purge of dry nitrogen at 50 ml/min was maintained over the sample.

[9] = Description: After each addition of solvent, the system was shaken gently for 10 minutes at 50° C. and then allowed to stand at room temperature for 5 min before the addition of a new aliquot of solvent. After the assessment was completed, any suspensions obtained were matured and clear solutions were cooled at 5° C.

7 days storage @ 40° C./75% RH: appearance [1]: Waxy/glassy
behaviour on storage conditions ([2]; 1 week, 40° C. and 75% RH): remained unchanged
7 days storage @ 40° C./75% RH: resulting form (XRPD) [2]: Form 2
stability over time ([2]; thermally stable, over time): converts over time to a waxy solid
SMILES: Cl.NCc1cc(Oc2cccc(C(=O)N3C[C@@H](O)[C@H](F)C3)c2)nc(C(F)(F)F)c1 [Form 2 of Compound 1, (R,R)-trans-(3-((4-(aminomethyl)-6-(trifluoromethyl)pyridin-2-yl)oxy)phenyl)(3-fluoro-4-hydroxypyrrolidin-1-yl)methanone, hydrochloride salt]

7 days storage @ 40° C./75% RH: appearance [1]: Glassy
Solubility [9]: 200-100
SMILES: Cl.NCc1cc(Oc2cccc(C(=O)N3C[C@@H](O)[C@H](F)C3)c2)nc(C(F)(F)F)c1 [Amorphous Compound 1, (R,R)-trans-(3-((4-(aminomethyl)-6-(trifluoromethyl)pyridin-2-yl)oxy)phenyl)(3-fluoro-4-hydroxypyrrolidin-1-yl)methanone, hydrochloride salt]

7 days storage @ 40° C./75% RH: appearance [1]: Waxy/glassy
hygroscopicity [2]: hygroscopic solid
7 days storage @ 40° C./75% RH: resulting form (XRPD) [2]: transforms to Form 2
behaviour on storage at 40° C. and 75% RH ([2]; after 24 hours): deliquescing
SMILES: Cl.NCc1cc(Oc2cccc(C(=O)N3C[C@@H](O)[C@H](F)C3)c2)nc(C(F)(F)F)c1 [Form 1 of Compound 1, (R,R)-trans-(3-((4-(aminomethyl)-6-(trifluoromethyl)pyridin-2-yl)oxy)phenyl)(3-fluoro-4-hydroxypyrrolidin-1-yl)methanone, hydrochloride salt]

Further lines, the compound ahead of its results:

SMILES: CS(=O)(=O)O.NCc1cc(Oc2cccc(C(=O)N3C[C@@H](O)[C@H](F)C3)c2)nc(C(F)(F)F)c1 [Form 1 of Compound 2, (R,R)-trans-(3-((4-(aminomethyl)-6-(trifluoromethyl)pyridin-2-yl)oxy)phenyl)(3-fluoro-4-hydroxypyrrolidin-1-yl)methanone, methanesulfonate salt]
Organic Solubility: Qualitative Solubility ([3]; isopropyl acetate, isopropanol, methyl-ethyl ketone, acetone, ethanol, methyl-t-butyl ether, 1,4 dioxane, toluene, tetrahydrofuran, dichloromethane, acetonitrile): ≤10 mg/mL
Organic Solubility: Qualitative Solubility ([3]; water, dimethyl sulfoxide): >200 mg/mL
XRPD after the GVS analysis [4]: Unchanged
Aqueous Solubility ([5]; pH 2): >107 mg/mL
Aqueous Solubility ([5]; pH 7.4): >107 mg/mL
Aqueous Solubility ([5]; pH 10): >85 mg/mL
Polymorph stability on storage ([2]; 7 days at 40° C./75% RH and 25° C./97% RH): stable for 7 days

SMILES: CS(=O)(=O)O.NCc1cc(Oc2cccc(C(=O)N3C[C@@H](O)[C@H](F)C3)c2)nc(C(F)(F)F)c1 [Compound 2, (R,R)-trans-(3-((4-(aminomethyl)-6-(trifluoromethyl)pyridin-2-yl)oxy)phenyl)(3-fluoro-4-hydroxypyrrolidin-1-yl)methanone, methanesulfonate salt]
ICH stability, 1 month data ([6]; long-term (25° C./60%) and accelerated (40° C./75%) conditions of 1-year and 2-year ICH studies): within limits for all attributes tested
forced degradation, solid state, heat (Forced degradation study; solid, 100° C., 24 hours): stable
forced degradation, solid state, light (Forced degradation study; solid, max 365 nm, 24 hours): stable
forced degradation, solution state, heat (Forced degradation study; solution, 50° C. for 24 hours): stable
Clear Point Temperature ([7]; 5 mg in 1 mL IPA:water 95:5): 6.9 °C
Clear Point Temperature ([7]; 10 mg in 1 mL IPA:water 95:5): 20.3 °C
Clear Point Temperature ([7]; 20 mg in 1 mL IPA:water 95:5): 37.2 °C
Clear Point Temperature ([7]; 30 mg in 1 mL IPA:water 95:5): 48.5 °C
Cloud Point Temperature ([7]; 30 mg in 1 mL IPA:water 95:5): −7.8 °C
Clear Point Temperature ([7]; 40 mg in 1 mL IPA:water 95:5): 55.8 °C
Cloud Point Temperature ([7]; 40 mg in 1 mL IPA:water 95:5): −1.8 °C
Clear Point Temperature ([7]; 60 mg in 1 mL IPA:water 95:5): 64 °C
Cloud Point Temperature ([7]; 60 mg in 1 mL IPA:water 95:5): 14.5 °C
Clear Point Temperature ([7]; 70 mg in 1 mL IPA:water 95:5): 68.6 °C
Cloud Point Temperature ([7]; 70 mg in 1 mL IPA:water 95:5): 24.7 °C

SMILES: Cl.NCc1cc(Oc2cccc(C(=O)N3C[C@@H](O)[C@H](F)C3)c2)nc(C(F)(F)F)c1 [Compound 1, (R,R)-trans-(3-((4-(aminomethyl)-6-(trifluoromethyl)pyridin-2-yl)oxy)phenyl)(3-fluoro-4-hydroxypyrrolidin-1-yl)methanone, hydrochloride salt]
3 month accelerated stability ([6]; 40° C./75% RH, 3 month): no significant changes in purity or absorption of moisture

SMILES: CS(=O)(=O)O.NCc1cc(Oc2cccc(C(=O)N3C[C@@H](O)[C@H](F)C3)c2)nc(C(F)(F)F)c1 [Form 2 of Compound 2, (R,R)-trans-(3-((4-(aminomethyl)-6-(trifluoromethyl)pyridin-2-yl)oxy)phenyl)(3-fluoro-4-hydroxypyrrolidin-1-yl)methanone, methanesulfonate salt]
form change on heating [8]: can transform to Form 1
form change after storage ([1]; 7 days at 25° C./97% RH): change also occurs
form change after GVS analysis and storage ([2]; after GVS analysis and 7 days at 40° C./75% RH): phase transformation towards Form 1
form change in humidity ([2]; humidity): converts to Form 1
